Data reported in PubChem BioAssay AID1919001 (Molecular Pharmacology Branch, DTP, NCI, 2023).

Tested on: 699152-130-R-J1-PDC complex spheroid growth
Experiment: Anticancer human tumor 699152-130-R-J1-PDC patient-derived pancreatic carcinoma cell line growth inhibition [AhR]
Details: for IC50: curve of first compound; for viability, T/C: stronger effect = lower value; active = viability on the fitted dose curve at most 10% of control; inactive = the rest
From the text: Multicellular complex tumor spheroid response to aryl hydrocarbon receptor antagonists in combination with a variety of drugs and investigational agents in selected tumor cell lines
The current study was undertaken to assess response to aryl hydrocarbon receptor antagonists in combination with standard-of-care drugs and investigational agents in solid tumor complex spheroid models. Complex spheroids include a stromal component modeled by human endothelial cells (HUVEC) and fibroblasts modeled by human mesenchymal stem cells (MSCs). The concentration ranges selected for each drug and investigational agent were based upon clinically achievable concentrations if the clinical Cmax of the agent was known.
Compounds. The drugs and investigational agents: BAY 2416964 (NSC825713), GNF351 (NSC835774), CH-223191 (NSC835775), CPI-455 (NSC825282), aza-TdCyd (NSC777586), decitabine (NSC127716), belinostat (NSC758774), entinostat (NSC756642), pevonedistat (NSC761192), tazemetostat (NSC777109), talazoparib (NSC765396), olaparib (NSC753686), selinexor (NSC780203), nedisertib (M3814, NSC802822), bortezomib (NSC756655), venetoclax (NSC766270), doxorubicin (NSC123127), elimusertib (BAY189344, NSC800525), ceralasertib (AZD6738, NSC777638), TAK-243 (NSC785004), alisertib (NSC759677), etoposide (NSC141540), topotecan (NSC609699), eribulin (NSC707389), gemcitabine (NSC613327), carboplatin (NSC241240), cisplatin (NSC119875), and SN-38 (NSC673596) were obtained from the National Cancer Institute (NCI) Developmental Therapeutics Program Chemical Repository (32). The FDA-approved anticancer drug set is available from the Developmental Therapeutics Program at https://dtp.cancer.gov/organization/dscb/obtaining/available plates.htm. […] The stock solutions were prepared in dimethyl sulfoxide (DMSO, Sigma-Aldrich, St. Louis, MO, cat. D2650), except for the platinum compounds which were prepared in saline (Quality Biological, Gaithersburg, MD, cat. 114-055-101), at 800-fold the tested concentration and stored at -70 degrees C prior to their use. All drugs and investigational agents were tested over a range starting from a high concentration at or near the clinical Cmax and decreasing in half-log increments. If the clinical Cmax for an agent had not been determined, the highest concentration tested was 10 microM (Table 1).
Cell Culture. All cells were maintained in an incubator at 37 degrees C and 5% CO2 with 95% humidity. The PDC lines were cultured according to standard operating procedures established by the NCI PDMR (https://pdmr.cancer.gov). Briefly, all PDCs were thawed and cultured in Matrigel-coated flasks prepared with a working solution of 1X Ham's F-12 nutrient mix, without supplementation (Invitrogen, Waltham, MA, cat. 11765054), 100 U/mL penicillin-streptomycin (Invitrogen, cat. 15140122), and 2.5% Matrigel (Corning Inc., Corning, NY, cat. 354248) for the first three passages. All PDCs were cultured in complete DMEM/F-12 media containing advanced DMEM/F-12 (Invitrogen, cat. 12634028), 4.9% defined fetal bovine serum, heat inactivated (HyClone Laboratories Inc., Logan, UT, cat. SH30070.03HI), 389 ng/mL hydrocortisone (Sigma-Aldrich, cat. H4001), 9.7 ng/mL human EGF recombinant protein (Invitrogen, cat. PHG0313), 23.4 microg/mL adenine (Sigma-Aldrich, cat. A2786), 97.3 U/mL penicillin-streptomycin (Invitrogen, cat. 15140122), 1.9 mM L-glutamine (Invitrogen, cat. 25030081), and 9.7 microM Y-27632 dihydrochloride (Tocris Bioscience, Bristol, United Kingdom, cat. 1254). The PDCs were cultured in complete DMEM/F12 media without 10 microM Y-27632 dihydrochloride for at least two passages prior to the screen. The established cell lines NCI-H1341 and […] were cultured in DMEM/F-12, HEPES (Invitrogen, cat. 11330032), 5% defined fetal bovine serum (HyClone Laboratories Inc., cat. SH30070.03), ITS premix universal culture supplement [insulin (5 microg/mL), transferrin (5 microg/mL), and selenious acid (5 ng/mL)] […]
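Note: compound exposure lasted 7 days after spheroids had grown for 3 days.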

CC(C)CC(NC(=O)C(Cc1ccccc1)NC(=O)c1cnccn1)B(O)O (stereo not given) + Cc1cncc(-c2nc(NCCc3c[nH]c4ccccc34)c3ncn(C(C)C)c3n2)c1
0.015 µM: IC50 (second compound 0.1 µM)
< 0.000949 µM: IC50 (second compound 10 µM)
0.0157 µM: IC50 (second compound 3.16 µM)
active: viability, T/C (second compound 0.1 µM, first compound 0.03 µM) 1.43% | viability, T/C (second compound 0.1 µM, first compound 0.0949 µM) 2.12% | viability, T/C (second compound 0.1 µM, first compound 0.3 µM) 0.56% | viability, T/C (second compound 0.316 µM, first compound 0.03 µM) 0.83% | viability, T/C (second compound 0.316 µM, first compound 0.0949 µM) 0.54% | viability, T/C (second compound 0.316 µM, first compound 0.3 µM) 0.39% | viability, T/C (second compound 1 µM, first compound 0.03 µM) 0.8% | viability, T/C (second compound 1 µM, first compound 0.0949 µM) 0.31% | viability, T/C (second compound 1 µM, first compound 0.3 µM) 0.34% | viability, T/C (second compound 3.16 µM, first compound 0.03 µM) 0.56% | viability, T/C (second compound 3.16 µM, first compound 0.0949 µM) 0.26% | viability, T/C (second compound 3.16 µM, first compound 0.3 µM) 0.31% | viability, T/C (second compound 10 µM, first compound 0.003 µM) 12.2% | viability, T/C (second compound 10 µM, first compound 0.00949 µM) 5.17% | viability, T/C (second compound 10 µM, first compound 0.03 µM) 0.33% | viability, T/C (second compound 10 µM, first compound 0.0949 µM) 0.3% | viability, T/C (second compound 10 µM, first compound 0.3 µM) 0.39%
inactive: viability, T/C (second compound 0.1 µM, first compound 0.000949 µM) 107% | viability, T/C (second compound 0.1 µM, first compound 0.003 µM) 104% | viability, T/C (second compound 0.1 µM, first compound 0.00949 µM) 82.4% | viability, T/C (second compound 0.316 µM, first compound 0.000949 µM) 99.4% | viability, T/C (second compound 0.316 µM, first compound 0.003 µM) 112% | viability, T/C (second compound 0.316 µM, first compound 0.00949 µM) 93.8% | viability, T/C (second compound 1 µM, first compound 0.000949 µM) 119% | viability, T/C (second compound 1 µM, first compound 0.003 µM) 111% | viability, T/C (second compound 1 µM, first compound 0.00949 µM) 100% | viability, T/C (second compound 3.16 µM, first compound 0.000949 µM) 80.3% | viability, T/C (second compound 3.16 µM, first compound 0.003 µM) 92.8% | viability, T/C (second compound 3.16 µM, first compound 0.00949 µM) 91.3% | viability, T/C (second compound 10 µM, first compound 0.000949 µM) 10.4%
0.0163 µM: IC50 (second compound 0.316 µM)
0.017 µM: IC50 (second compound 1 µM)

CC1COCCN1c1cc(-c2ccnn2C)c2ccnc(-c3ccn[nH]3)c2n1 (stereo not given) + CC(CO)NC(=O)c1cc(-c2ccc(Cl)cc2)nn(-c2cnn(C)c2)c1=O
> 1 µM: IC50 (second compound 0.1 µM) | IC50 (second compound 0.316 µM) | IC50 (second compound 1 µM) | IC50 (second compound 3.16 µM) | IC50 (second compound 10 µM)
inactive: viability, T/C (second compound 0.1 µM, first compound 0.00316 µM) 105% | viability, T/C (second compound 0.1 µM, first compound 0.01 µM) 112% | viability, T/C (second compound 0.1 µM, first compound 0.0316 µM) 112% | viability, T/C (second compound 0.1 µM, first compound 0.1 µM) 94.2% | viability, T/C (second compound 0.1 µM, first compound 0.316 µM) 86.8% | viability, T/C (second compound 0.1 µM, first compound 1 µM) 63.3% | viability, T/C (second compound 0.316 µM, first compound 0.00316 µM) 102% | viability, T/C (second compound 0.316 µM, first compound 0.01 µM) 100% | viability, T/C (second compound 0.316 µM, first compound 0.0316 µM) 110% | viability, T/C (second compound 0.316 µM, first compound 0.1 µM) 92.1% | viability, T/C (second compound 0.316 µM, first compound 0.316 µM) 77.7% | viability, T/C (second compound 0.316 µM, first compound 1 µM) 59.1% | viability, T/C (second compound 1 µM, first compound 0.00316 µM) 102% | viability, T/C (second compound 1 µM, first compound 0.01 µM) 101% | viability, T/C (second compound 1 µM, first compound 0.0316 µM) 105% | viability, T/C (second compound 1 µM, first compound 0.1 µM) 87.5% | viability, T/C (second compound 1 µM, first compound 0.316 µM) 72.3% | viability, T/C (second compound 1 µM, first compound 1 µM) 58.3% | viability, T/C (second compound 3.16 µM, first compound 0.00316 µM) 85.8% | viability, T/C (second compound 3.16 µM, first compound 0.01 µM) 105% | viability, T/C (second compound 3.16 µM, first compound 0.0316 µM) 84.6% | viability, T/C (second compound 3.16 µM, first compound 0.1 µM) 80.1% | viability, T/C (second compound 3.16 µM, first compound 0.316 µM) 74% | viability, T/C (second compound 3.16 µM, first compound 1 µM) 65% | viability, T/C (second compound 10 µM, first compound 0.00316 µM) 97.7% | viability, T/C (second compound 10 µM, first compound 0.01 µM) 82.7% | viability, T/C (second compound 10 µM, first compound 0.0316 µM) 81.5% | viability, T/C (second compound 10 µM, first compound 0.1 µM) 73.9% | viability, T/C (second compound 10 µM, first compound 0.316 µM) 64.6% | viability, T/C (second compound 10 µM, first compound 1 µM) 58.1%
